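96-well plates; 48 h exposure; 5 concentrations. Endpoints by linear interpolation between flanking doses. Not reached: highest tested concentration assigned. TGI is the concentration that stops growth completely.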
Experiments:
Assay in all cases: inhibition of tumour cell growth, NCI panel, 48 h
COLO 205 colon = system: COLO 205 colon
HCT-15 colon = system: HCT-15 colon
KM12 colon = system: KM12 colon
LOX IMVI melanoma = system: LOX IMVI melanoma
M14 melanoma = system: M14 melanoma
MDA-MB-435 = system: MDA-MB-435
RPMI-8226 leukemia = system: RPMI-8226 leukemia
RXF 393 renal = system: RXF 393 renal
SF-539 CNS = system: SF-539 CNS
SNB-75 CNS = system: SNB-75 CNS
T-47D breast = system: T-47D breast
UO-31 renal = system: UO-31 renal

Measured: TGI

NC(CCCCCCCCCCP(=O)(O)O)C(=O)O (configuration not stated)
> 100 µM: COLO 205 colon | HCT-15 colon | KM12 colon | LOX IMVI melanoma | M14 melanoma | MDA-MB-435 | RPMI-8226 leukemia | RXF 393 renal | SF-539 CNS | SNB-75 CNS | T-47D breast | UO-31 renal

Source: PubChem BioAssay (NCI)
